We go through 18 molecules from US7893284B2 (Sterix Limited, priority 2004, dated 2011).

Read-outs that look alike come from different tables or passages of the source.

One assay deals with MCF-7 cells. The assay can be described thus: Cell proliferation, microtiter plate assay (Cell Titer 96), MCF-7. Format: cell-based. How it is done:
The effect of drugs on the proliferation of cells was measured using a microtiter plate assay (Cell Titer 96 proliferation assay, Promega, Hampshire, UK).

The next assay concerns Tubulin. The assay can be described thus: Inhibition of taxol-induced microtubule polymerization (turbidity at 350 nm). Format: biochemical. To be noted: 20 μM, tubulin 1 mg/ml, FIG. 3. As to the method:
The ability of drugs to inhibit taxol-induced polymerisation of tubulin was measured by turbidity at 350 nm. Tubulin (Cryoskeleton Inc., Denver, Colo.), at a final concentration of 1 mg/ml was incubated at 32° C. in G-PEM buffer [80 mM piperazine-N,N′-bis (2-ethane sulfonic acid) sequisodium salt, 1 mM MgCl2, 1 mM EGTA and 1 mM GTP (pH 6.8)] in the presence of taxol with or without estrone derivatives [20 μM].
STX641 is thought to act as an anti-microtubule agent, i.e. to disrupt microtubule function. To show this, tubulin was incubated in the presence of taxol (a compound known to promote tubulin polymerisation). Taxol induced efficient in vitro microtubule assembly as reflected in the increase in turbidity as measured at 350 nm.

In assay [1] the test system is MCF-7 Breast Cancer Cells. Nature of the assay: Flow cytometric cell cycle analysis, MCF-7. Format: cell-based. To be noted: 500 nM. As to the method: Flow cytometric cell cycle analysis was performed on 40% confluent populations of MCF-7s with 500 nM of compound.
Assay [2] deals with human umbilical vein endothelial cells (HUVECs). The assay can be described thus: Tubule formation, Angiogenesis kit, co-culture of HUVECs and dermal fibroblasts. Type of assay: cell-based. The settings on record: 0.05 μM and 0.1 μM, FIG. 7. As to the method:
The effects of drugs on tubule formation (measured as a marker of their anti-angiogenic potential) was assessed using an Angiogenesis kit (TCS-Cellworks Ltd (Bucks, UK). For this, human umbilical vein endothelial cells (HUVECs) were cultured in a 24-well plate within a matrix of human diploid fibroblasts of dermal origin. The co-cultured cells were incubated throughout the experiment at 37° C. under 5% CO2 in a humidified incubator. On day 1, the culture medium was removed and replaced with medium containing the drugs under investigation. On days 4, 7 and 9, the medium was replaced with fresh medium containing the drugs under investigation. On day 11, the cells were washed with PBS and 70% ethanol (1 ml) added to each well for 30 min to fix the cells. After fixation, the cells were washed with blocking buffer (1 ml PBS+1% bovine serum albumin, Sigma, UK) and stained with either von Willebrand's factor or CD31. The extent of tubule formation was quantified by manual scoring or by computer analysis. Images were captured using a Kodak DC120 digital camera. In addition, details of changes in tubule formation induced by drugs were also recorded by high definition scanning of plates with some of the scans being presented as Photoshop processed images.
In this assay, the ability of STX641 (and related compounds) to act as an inhibitor of angiogenesis was examined using a co-culture of HUVECs and dermal fibroblasts. In this system, the endothelial cells initially form small islands within the fibroblast matrix. They subsequently proliferate and enter a migratory phase during which they move through the matrix to form thread-like tubule structures. These coalesce to form a network of anastomosing tubules. In FIG. 5, for untreated (control) co-cultures of HUVECs and dermal fibroblasts, the thread-like nature of the extensive tubule network is clearly visible. […] In FIG. 6, plates have been recorded by high definition scanning and also processed to give pixalated images.

For assay [3], the target named is T1, Placental Microsomal Steroid Sulphatase (Homo sapiens, UniProt P08842).
T1 construct: Sulphatase-positive human placenta from normal term pregnancies are thoroughly minced with scissors; from tissue; host or cells: human term placenta (2000 g supernatant of homogenate)
T1 sequence (P08842 22-583): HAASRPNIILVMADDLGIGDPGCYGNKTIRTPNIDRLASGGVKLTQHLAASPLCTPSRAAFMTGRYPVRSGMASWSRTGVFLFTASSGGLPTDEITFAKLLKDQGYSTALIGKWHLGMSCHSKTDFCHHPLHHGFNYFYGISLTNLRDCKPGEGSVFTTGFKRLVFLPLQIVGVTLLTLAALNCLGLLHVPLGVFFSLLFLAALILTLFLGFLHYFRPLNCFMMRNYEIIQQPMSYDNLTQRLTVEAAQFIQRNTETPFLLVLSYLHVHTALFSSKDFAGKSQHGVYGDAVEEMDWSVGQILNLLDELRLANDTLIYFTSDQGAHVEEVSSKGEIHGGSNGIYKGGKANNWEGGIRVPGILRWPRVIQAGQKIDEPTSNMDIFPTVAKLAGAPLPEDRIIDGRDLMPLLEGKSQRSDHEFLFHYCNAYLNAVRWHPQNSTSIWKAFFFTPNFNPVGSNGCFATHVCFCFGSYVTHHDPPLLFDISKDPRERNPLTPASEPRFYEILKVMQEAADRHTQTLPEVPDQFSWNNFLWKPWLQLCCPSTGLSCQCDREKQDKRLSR
The assay can be described thus: Inhibition of steroid sulphatase activity in placental microsomes (Protocol 2). Type of assay: biochemical. How it is done:
Assay for Determining STS Activity Using Placental Microsomes (Protocol 2)
Inhibition of Steroid Sulphatase Activity in Placental Microsomes
Sulphatase-positive human placenta from normal term pregnancies are thoroughly minced with scissors and washed once with cold phosphate buffer (pH 7.4, 50 mM) then re-suspended in cold phosphate buffer (5 ml/g tissue). Homogenisation is accomplished with an Ultra-Turrax homogeniser, using three 10 second bursts separated by 2 minute cooling periods in ice. Nuclei and cell debris are removed by centrifuging (4° C.) at 2000 g for 30 minutes and portions (2 ml) of the supernatant are stored at […] The protein concentration of the supernatants is determined by the method of Bradford (Anal. Biochem., 72, 248-254 (1976)).
. The mixture is shaken thoroughly for 30 seconds with toluene (5 ml). Experiments have shown that >90% [14C]oestrone and <0.1% [3H]oestrone-3-sulphate is removed from the aqueous phase by this treatment. A portion (2 ml) of the organic phase was removed, evaporated and the 3H and 14C content of the residue determined by scintillation spectrometry. The mass of oestrone-3-sulphate hydrolysed is calculated from the 3H counts obtained (corrected for the volumes of the medium and organic phase used, and for recovery of [14C]oestrone added) and the specific activity of the substrate.

Where [4] appears, read: Homo sapiens, MCF7, read-out: IC50 in μM for the growth inhibition of MCF-7 cells.
Setting [5] is: read-out: IC50 in μM for the growth inhibition of MCF-7 cells.

In the case of `CCOC(=O)/C=C1\CCC2C3CCc4cc(OS(N)(=O)=O)c(CC)cc4C3CC[C@]12C` (stereo in doubt) [Compound 15, (2-Ethyl-13-methyl-3-sulfamoyloxy-6,7,8,9,11,12,13,14,15,16-decahydro-cyclopenta[a]phenanthren-17-ylidene)-acetic acid ethyl ester], the half-maximal inhibitory concentration (IC50) in the assay on MCF-7 cells (setting [4]) turned out to be 1.85 µM.

For `CCOC(=O)C[C@H]1CCC2C3CCc4cc(O)c(CC)cc4C3CC[C@@]21C` (stereo in doubt) [Compound 22, (2-Ethyl-3-hydroxy-13-methyl-7,8,9,11,12,13,14,15,16,17-decahydro-6H-cyclopenta[a]phenanthren-17-yl)-acetic acid ethyl ester], the half-maximal inhibitory concentration (IC50) with MCF-7 cells (setting [4]) came to 26.4 µM.

Consider `CCOC(=O)C[C@H]1CCC2C3CCc4cc(OS(N)(=O)=O)c(CC)cc4C3CC[C@@]21C` (stereo in doubt) [Compound 23, (2-Ethyl-13-methyl-3-sulfamoyloxy-7,8,9,11,12,13,14,15,16,17-decahydro-6H-cyclopenta[a]phenanthren-17-yl)-acetic acid ethyl ester], for which, in the assay with MCF-7 cells (setting [4]), the half-maximal inhibitory concentration (IC50) was found to be 4.19 µM.

With `CCc1cc2c(cc1O)CCC1C2CC[C@@]2(C)C1CC[C@@H]2CC#N` (stereo in doubt) [Compound 27, (2-Ethyl-3-hydroxy-13-methyl-7,8,9,11,12,13,14,15,16,17-decahydro-6H-cyclopenta[a]phenanthren-17-yl)-acetonitrile], the “inhibition of taxol-induced polymerisation of tubulin” value (from here on “inhibition … of tubulin”) in the assay with Tubulin is “effectively blocked tubulin assembly”.

For the molecule `COc1cc2c(cc1O)CCC1C2CC[C@@]2(C)C1CC[C@@H]2CC#N` (stereo in doubt) [Compound 32, (3-Hydroxy-2-methoxy-13-methyl-7,8,9,11,12,13,14,15,16,17-decahydro-6H-cyclopenta[a]phenanthren-17-yl)-acetonitrile], the half-maximal inhibitory concentration (IC50) in the assay with MCF-7 cells (setting [4]) turned out to be 0.3 µM. For the same molecule, in assay [1] (8 h, control 16%), the “G2/M arrest (cells in G2/M)” value is recorded as 27%. In assay [1] (24 h, control 28%), the “cells G2/M arrested” value amounted to 18%. In the assay on Tubulin, the “inhibition … of tubulin” value was “effectively blocked tubulin assembly”.

For the molecule `CCOC(=O)/C=C1/CCC2C3CCc4cc(O)c(CC)cc4C3CC[C@]12C` (some centres unmarked) [Compound 14a, Z- and E-(2-Ethyl-3-hydroxy-13-methyl-6,7,8,9,11,12,13,14,15,16-decahydro-cyclopenta[a]phenanthren-17-ylidene)acetic acid ethyl ester], the IC50 in the assay on MCF-7 cells (setting [4]) came out at 30.6 µM.

On to `CCOC(=O)/C=C1\CCC2C3CCc4cc(O)c(CC)cc4C3CC[C@]12C` (some centres unmarked) [Compound 14b, Z- and E-(2-Ethyl-3-hydroxy-13-methyl-6,7,8,9,11,12,13,14,15,16-decahydro-cyclopenta[a]phenanthren-17-ylidene)acetic acid ethyl ester], for which, in the assay with MCF-7 cells (setting [4]), the IC50 is 31.1 µM.

Take `CCc1cc2c(cc1O)CCC1C2CC[C@]2(C)/C(=C\CO)CCC12` (some centres unmarked) [Compound 17a, Z- and E-2-Ethyl-17-(2-hydroxy-ethylidene)-13-methyl-7,8,9,11,12,13,14,15,16,17-decahydro-6H-cyclopenta[a]phenanthren-3-ol]: in the assay on MCF-7 cells (setting [4]), the concentration for half-maximal inhibition (IC50) was determined as 0.67 µM.

For `CCc1cc2c(cc1O)CCC1C2CC[C@]2(C)/C(=C/CO)CCC12` (some centres unmarked) [Compound 17b, Z- and E-2-Ethyl-17-(2-hydroxy-ethylidene)-13-methyl-7,8,9,11,12,13,14,15,16,17-decahydro-6H-cyclopenta[a]phenanthren-3-ol], the half-inhibitory concentration (IC50) in the assay on MCF-7 cells (setting [4]) worked out at 0.77 µM.

Consider `CCc1cc2c(cc1O)CCC1C2CC[C@@]2(C)C1CC[C@@H]2CCO` (some centres unmarked) [Compound 19, 2-Ethyl-17-(2-hydroxy-ethyl)-13-methyl-7,8,9,11,12,13,14,15,16,17-decahydro-6H-cyclopenta[a]phenanthren-3-ol], for which the concentration for half-maximal inhibition (IC50) in the assay with MCF-7 cells (setting [4]) came out at 2.52 µM.

As for `CCc1cc2c(cc1OS(N)(=O)=O)CCC1C2CC[C@@]2(C)C1CC[C@@H]2CCOS(N)(=O)=O` (some centres unmarked) [Compound 20, Sulfamic acid 2-ethyl-13-methyl-17-(2-sulfamoyloxy-ethyl)-7,8,9,11,12,13,14,15,16,17-decahydro-6H-cyclopenta[a]phenanthren-3-yl ester], the 50% inhibitory concentration (IC50) in the assay with MCF-7 cells (setting [4]) was 5.64 µM.

For `CCc1cc2c(cc1O)CCC1C2CC[C@@]2(C)C1CC[C@@H]2CC#N` (some centres unmarked) [Compound 27, (2-Ethyl-3-hydroxy-13-methyl-7,8,9,11,12,13,14,15,16,17-decahydro-6H-cyclopenta[a]phenanthren-17-yl)-acetonitrile], in the assay with MCF-7 cells (setting [4]), the IC50 was determined as 3.24 µM.

On to `CCc1cc2c(cc1OS(N)(=O)=O)CCC1C2CC[C@@]2(C)C1CC[C@@H]2CC#N` (some centres unmarked) [Compound 28, Sulfamic acid 17-cyanomethyl-2-ethyl-13-methyl-7,8,9,11,12,13,14,15,16,17-decahydro-6H-cyclopenta[a]phenanthren-3-yl ester], for which the “inhibition … of tubulin” value in the assay with Tubulin is given as “effectively blocked tubulin assembly”. Besides, the “inhibition of tubule formation quantified by computer analysis” value in assay [2] was “completely inhibited tubule formation”.

In the case of `COc1cc2c(cc1O)CCC1C2CCC2(C)C(=CC#N)CCC12` (centres unmarked) [Compound 30, Z- and E-(3-Hydroxy-2-methoxy-13-methyl-6,7,8,9,11,12,13,14,15,16-decahydro-cyclopenta[a]phenanthren-17-ylidene)-acetonitrile], in the assay with MCF-7 cells (setting [5]), the IC50 was found to be 3.22 µM.

As for `COc1cc2c(cc1O)CCC1C2CC[C@@]2(C)C1CC[C@@H]2NCCN(C)C` (some centres unmarked) [Compound 36, 17-(2-Dimethylamino-ethylamino)-2-methoxy-13-methyl-7,8,9,11,12,13,14,15,16,17-decahydro-6H-cyclopenta[a]phenanthren-3-ol], the half-maximal inhibitory concentration (IC50) in the assay on MCF-7 cells (setting [4]) came to 3.25 µM.

For the molecule `COCCOC1CCC2C3CCc4cc(O)c(OC)cc4C3CCC12C` (centres unmarked) [Compound 51, 2-Methoxy-17-(2-methoxy-ethoxy)-13-methyl-7,8,9,11,12,13,14,15,16,17-decahydro-6H-cyclopenta[a]phenanthren-3-ol], the IC50 in the assay on MCF-7 cells (setting [4]) is 6.02 µM.

In the case of `CCc1cc2c(cc1O)CC[C@@H]1[C@@H]2CC[C@]2(C)[C@@H](OS(C)(=O)=O)CC[C@@H]12` [Compound 59, 2-Ethyl-17-O-mesyl estradiol], the IC50 in the assay on MCF-7 cells (setting [5]) was 5.58 µM.

`CCc1cc2c(cc1OS(N)(=O)=O)CC[C@@H]1[C@@H]2CC[C@]2(C)[C@@H](OS(C)(=O)=O)CC[C@@H]12` [Compound 60, 2-Ethyl-3-O-sulfamoyl-17-O-mesyl estradiol]: the IC50 in the assay with MCF-7 cells (setting [4]) was 0.09 µM; in assay [3], > 10 µM.
